Measured values published in article PMC5617480 (Oncotarget, 2017).

Columns and labels:
Test in all cases: Cytotoxicity assay (MTT assay)
Type in all cases: cell-based, human
[1] = system: A549 cells; details: for Inhibitory rates (%): A549, 20 μM
Protocol: (§1) To evaluate the cytotoxicity of chiral platinum(II) complexes, HeLa, BEL-7402, MGC80-3, BEL-7404, A549, Hep-G2 and HL-7702 cells (normal cells) were treated with varying concentrations of complexes 1–6 and cisplatin (positive control, cisplatin was dissolved at a concentration of 1.0 mM in 0.154 M NaCl) for 24 h and 48 h. The cell viability of each experimental group was examined by MTT assays. […] [61, 62]. […] Therefore, complex 6 (10 μM) was selected for cell apoptosis analysis by flow-cytometry, RT-PCR, caspase-3/9 activation assays, western blot and transfection assays in BEL-7404 cells for 24 h. In addition, this observed difference in in vitro cytotoxicity between the three complexes 4–6 could be due to the influence of the chirality of the FOA ligand [68]. […]
(§2) Materials 100 U/mL penicillin and 100 μg/mL streptomycin in 25 cm2 culture flasks at 37 °C humidified atmosphere with Tris, RNase A, and propidium iodide (PI) were 5% CO2. All cells to be tested in the following assays have purchased from Sigma. The antibody of mutp53, a passage number of 3-6. […]
(§3) were purchased from Abcam. Unless otherwise stated, BEL-7404, A549, and Hep-G2 cancer-cell lines and HL-spectroscopic titration experiments were carried out in 7702 normal cells) per well were seeded in triplicate in TBS (10 mM pH7.35 Tris-HCl, containing 100 mM KCl). 96-well plates and incubated for 24 h at 37 °C and 5.0% The total RNA isolation kit and the two-step RT-PCR kit CO2/95.0% air. Then graded amounts of compound were purchased from TIANGEN. DNA oligomers (highly added to the wells in 10.0 μL of FBS free culture medium polymerized stored at 4 °C; long-term storage at −20 °C) and the plates were incubated in a 5% CO2 humidified are listed in Supplementary Table 1 and were obtained from atmosphere for 24 h and 48 h. Six replica wells were used Shanghai Sangon Biological Engineering Technology & as controls. Each the cells were grew for 12.0 h before Services (Shanghai, China). All tumor cell lines (HeLa, treatment to reach 70.0% confluency and 20.0 μL of tested BEL-7402, MGC80-3, BEL-7404, A549, Hep-G2 cancer- various concentrations of compounds were added to each cell lines and normal liver cell line HL-7702) were obtained well. The final concentration of the tested complexes from the Shanghai Institute for Biological Science (China). or compounds were kept at 1.25, 2.5, 5, 10, 20 μM, Stock solutions of all the compounds (2.0 mM) were made respectively. After 24 h or 48 h of culture, 0.1 mg of in DMSO, and further dilutions to working concentrations MTT (in 20 μL of PBS) was added to each well, and cells were made with corresponding buffer. were incubated at 37 °C for 6 h. The formed formazan crystals were then dissolved in 100 μL of DMSO and the Instrumentation absorbance was read by enzyme labeling instrument with Infrared spectra were obtained on a Perkine Elmer 490/630 nm double wavelength measurement. The final FT-IR Spectrometer. Elemental analyses (C, H, N) IC50 values were calculated by the Bliss method (n = 5). were carried out on a Perkin Elmer Series II CHNS/O All tests were repeated in at least three independent trials. […]
(§4) 10.0 min. The cell pellet obtained was dissolved in 1.0 M
(§5) The region between 200 and 400 nm was scanned for each NaOH (1.0 mL) and diluted with 2.0% (v/v) HNO3 (5.0 sample. MTT assay was performed on M1000 microplate mL) for determining whole cell Pt content. Another set reader (Tecan Trading Co. Ltd, Shanghai, China). Cell was treated similarly, nuclear proteins, nuclear fraction, cycle and apoptosis analysis was recorded on FACS Aria cytoplasmic protein, membrane proteins and other fraction II Flow Cytometer (BD Biocsiences, San Jose, USA). were isolated as described by Chen and Schreiber et al. And the each final solution was made up to 5.0 mL
(§6) Cytotoxicity assay (MTT assay) using 2.0% (v/v) HNO3. The amount of Pt taken up by the cells was determined by ICP-MS. The instrument was […]

[2] = system: BEL-7402 cells; details: for Inhibitory rates (%): BEL-7402, 20 μM
Protocol: as §1, §2, §3, §4, §5, §6

[3] = system: BEL-7404 cells; details: for Inhibitory rates (%): BEL-7404, 20 μM
Protocol: as §1, §2, §3, §4, §5, §6

[4] = system: HeLa cells; details: for Inhibitory rates (%): 20 μM
Protocol: as §1, §2, §3, §4, §5, §6

[5] = system: Hep-G2 cells; details: for Inhibitory rates (%): Hep-G2, 20 μM
Protocol: as §1, §2, §3, §4, §5, §6

[6] = system: MGC80-3 cells; details: for Inhibitory rates (%): MGC80-3, 20 μM
Protocol: as §1, §2, §3, §4, §5, §6

[7] = system: HL-7702 normal cells; details: for Inhibitory rates (%): HL-7702, 20 μM
Protocol: To evaluate the cytotoxicity of chiral platinum(II) complexes, HeLa, BEL-7402, MGC80-3, BEL-7404, A549, Hep-G2 and HL-7702 cells (normal cells) were treated with varying concentrations of complexes 1–6 and cisplatin (positive control, cisplatin was dissolved at a concentration of 1.0 mM in 0.154 M NaCl) for 24 h and 48 h. The cell viability of each experimental group was examined by MTT assays. […] [61, 62].
as §2, §3

| Molecule | Inhibitory rates (%) ([1]; 24 h) | Inhibitory rates (%) ([1]; 48 h) | IC50 ([1]; A549, 24 h) [µM] | IC50 ([1]; A549, 48 h) [µM] | Inhibitory rates (%) ([2]; 24 h) | Inhibitory rates (%) ([2]; 48 h) | IC50 ([2]; BEL-7402, 24 h) [µM] | IC50 ([2]; BEL-7402, 48 h) [µM] | Inhibitory rates (%) ([3]; 24 h) | Inhibitory rates (%) ([3]; 48 h) | IC50 ([3]; BEL-7404, 24 h) [µM] | IC50 ([3]; BEL-7404, 48 h) [µM] | Inhibitory rates (%) ([4]; 24 h) | Inhibitory rates (%) ([4]; 48 h) | IC50 ([4]; 24 h) [µM] | IC50 ([4]; 48 h) [µM] | Inhibitory rates (%) ([5]; 24 h) | Inhibitory rates (%) ([5]; 48 h) | IC50 ([5]; Hep-G2, 24 h) [µM] | IC50 ([5]; Hep-G2, 48 h) [µM] | further results |
| --- | --- | --- | --- | --- | --- | --- | --- | --- | --- | --- | --- | --- | --- | --- | --- | --- | --- | --- | --- | --- | --- |
| N.N.[Cl][Pt][Cl] [cisplatin, reference compound] | 48.6 ± 0.4 | 51.1 ± 3.4 | 21.3 ± 0.7 | 17 ± 2.3 | 55.4 ± 0.9 | 65.7 ± 1.2 | 17.5 ± 0.6 | 13.5 ± 0.9 | 45.5 ± 2.1 | 54.2 ± 1.4 | 24.8 ± 1.8 | 15.8 ± 0.7 | 64.3 ± 1.4 | 80.6 ± 0.9 | 15.8 ± 1.2 | 5.8 ± 0.9 | 51.6 ± 0.6 | 60.6 ± 1.0 | 19.5 ± 0.5 | 9.5 ± 0.4 | Inhibitory rates (%) ([6]; 24 h): 61.5 ± 1.2%; Inhibitory rates (%) ([6]; 48 h): 71.4 ± 1.5%; IC50 ([6]; MGC80-3, 24 h): 16.3 ± 1.3 µM; IC50 ([6]; MGC80-3, 48 h): 5.4 ± 0.5 µM; selectivity index factor, IC50 (normal HL-7702 cells)/IC50 (BEL-7404 tumor cells) ([7]; 24 h): 0.8; selectivity index factor, IC50 (normal HL-7702 cells)/IC50 (BEL-7404 tumor cells) ([7]; 48 h): 1.0; Inhibitory rates (%) ([7]; 24 h): 59.6 ± 1.2%; Inhibitory rates (%) ([7]; 48 h): 73.6 ± 2.3%; IC50 ([7]; HL-7702, 24 h): 19.8 ± 1.3 µM; IC50 ([7]; HL-7702, 48 h): 15.6 ± 0.3 µM |
| cis-[PtCl2(R-(+)-FOA)] [complex 5] | 28.9 ± 0.5 | 35.9 ± 2.6 | 56.3 ± 0.7 | 17.2 ± 0.1 | 35.6 ± 2.1 | 42.1 ± 0.7 | 42.3 ± 1.9 | 38.4 ± 1.4 | 46.1 ± 1.1 | 55.9 ± 2.7 | 22.5 ± 1.3 | 14.5 ± 0.5 | 8.6 ± 1.5 | 9.9 ± 0.7 | 168.6 ± 1.4 | 64.2 ± 0.2 | 16.5 ± 1.4 | 23.3 ± 0.5 | 93.4 ± 1.2 | 35.7 ± 1.5 | Inhibitory rates (%) ([6]; 24 h): 11.3 ± 0.4%; Inhibitory rates (%) ([6]; 48 h): 19.8 ± 1.8%; IC50 ([6]; MGC80-3, 24 h): 135.1 ± 0.5 µM; IC50 ([6]; MGC80-3, 48 h): 37.4 ± 1.2 µM; selectivity index factor, IC50 (normal HL-7702 cells)/IC50 (BEL-7404 tumor cells) ([7]; 24 h): 3.6; selectivity index factor, IC50 (normal HL-7702 cells)/IC50 (BEL-7404 tumor cells) ([7]; 48 h): 3.9; Inhibitory rates (%) ([7]; 24 h): 30.6 ± 2.1%; Inhibitory rates (%) ([7]; 48 h): 37.5 ± 5.3%; IC50 ([7]; HL-7702, 24 h): 80.1 ± 1.8 µM; IC50 ([7]; HL-7702, 48 h): 55.8 ± 3.1 µM |
